According to patent US9856511B2, “Protease deubiquitinating inhibitor screening” (priority 2011, dated 2018):

Experiments:
[1] = Animal weight and side effects in treated tumor-bearing mice; type: in vivo
Experimental: In order to investigate the effect of b-AP15 on tumor growth in vivo, the compound was administered to mice bearing either a human tumor or mouse xenografts. FaDu head and neck carcinoma were chosen as a SCID mouse xenograft both as a model for a p53mut tumor and since this model is suitable for studies using circulating cell death biomarkers (30). Significant inhibition of FaDu tumor growth was observed following daily treatment with b-AP15 (treated/control tumor volume, T/C=0.4, p=<0.001). Similarly b-AP15 (day on/2 day off schedule) inhibited tumor growth in C57BL/6J mice bearing lung carcinomas (T/C=0.16, p=<0.01). […] To examine whether b-AP15 promotes tumor cell death in vivo, plasma levels of cytokeratin-18 (CK18) were analyzed. […] To investigate the ability of b-AP15 to inhibit proteasome deubiquitination in vivo, accumulation of poly-ubiquitin conjugates was analyzed by means of antibodies specific for K48 linked polyubiquitin chains. Histological analysis of treated tumors confirmed the accumulation of poly-ubiquitin conjugates.
Animal experiments were conducted in full accordance with Swedish governmental statutory regulations on animal welfare under permission from local ethical committees. Animals were housed at a max of five per cage and provided with sterile water and food ad libitum. All mice were monitored and weighed daily. For the head and neck carcinoma model a 100-μl cell suspension containing 1×10^6 FaDu cells was injected subcutaneously into the right rear flank of the animals. After injection, tumor growth was measured daily with calipers and the tumor volume calculated by the formula […]. When tumors had grown to a size of approximately 200 mm^3 (Day 0) mice were randomized to receive either vehicle (n=10) or b-AP15 5 mg/kg^−1 by subcutaneous injection s.c. (n=15) daily. For the colon carcinoma model, 2.5×10^6 HCT-116 colon carcinoma cells stably transfected with Bcl-2 (HCT-116^Bcl-2+) were inoculated subcutaneously into the right flank of nude mice. One day after inoculation mice were treated with 5 mg/kg^−1 by intra peritoneal injection (i.p.). Animals were inspected daily to establish the tumor onset and growth. For the lung carcinoma model a 100-μl cell suspension containing 2×10^5 Lewis Lung Carcinoma (LLC) cells was injected subcutaneously into the right rear flank of C57/B6 mice. When tumors had grown to a size of approximately 50 mm^3 (Day 0) mice were randomized to receive either vehicle (n=4) or b-AP15 5 mg/kg^−1 i.p. (n=4) with a treatment cycle consisting of two days treatment followed by two days no treatment (2 days on/2 days off) for two weeks. For the breast carcinoma model a 100-μl cell suspension containing 1×10^5 […] was injected subcutaneously into the right mammary fat pad of BALB/c mice. When tumors had grown to a size approximately 25 mm^3 (Day 0), mice were randomized to receive either vehicle (n=5) or b-AP15 2.5 mg/kg^−1 i.p. (n=5) with a treatment cycle consisting of one days treatment followed by three days no treatment (1 day on/3 days off) for 3 weeks. In the AML studies female C57BL/6J mice were injected i.v. in the tail vein with 5×10^5 C1498 AML cells. After eight days mice were randomized to receive either b-AP15 5 mg/kg^−1 (n=10) or vehicle (n=10) i.p. for 7 days (day +8 till +14). Nineteen days after malignant cell injection all of the mice were killed and histopathological manifestations of liver, ovary (target organs for this model of tumor) were evaluated and compared between groups. […]

26S proteasome = biological target: T1, 26S proteasome (Homo sapiens, UniProt P54578+Q9Y5K5); test: DUB inhibition assay, 26S proteasomes with ubiquitin-AMC; type: biochemical; conditions: Ub-AMC
T1 construct: purchased Boston Biochem E-365

[2] = system: isogenic clones of HCT116 colon cancer cells; test: Apoptosis in isogenic HCT116 clones, caspase cleaved cytokeratin-18 ELISA; type: cell-based
Experimental: The increase in sub G1 DNA content is associated with (i) activation of the apoptosis mediator caspase-3 and (ii) with cleavage of the caspase substrates poly-ADP ribose polymerase (PARP) and cytokeratin-18. […] Apoptosis induction by bortezomib is dependent on p53 and inhibited by overexpression of the Bcl-2 protein (16,17).
For determination of apoptosis parental HCT-116 p53+/+ cells were treated with the increasing doses of bortezomib or b-AP15 for 24 h. […] HCT-116 cells were seeded in 96-well microtiter plates at 10,000 cells per well and incubated overnight. Cells were treated with indicated drug for 24 h. At the end of the incubation period, NP40 was added to the tissue culture medium to 0.1% and 25 μl of the content of each well was assayed using the M30-Apoptosense® ELISA as previously described (43). Cell viability was determined by measuring acid phosphatase activity or using the FMCA method (44). For the acid phosphatase activity cells were seeded at 5000 cells per well in 96-well culture plates and incubated for 12 h at 37° C. Compounds were added to the cells in growth media and incubated for 72 h at 37° C. Cells were washed with 200 μl warm PBS. […] Absorbance was measured at 405 nm.
b-AP15 inhibits degradation of ubiquitin-tagged YFP in a proteasome reporter cell line (FIG. 1a). Levels of ^UbG76V-YFP accumulation were determined by flow cytometry and immunoblotting; immunoblot of ubiquitin conjugation in HCT-116 cells treated with b-AP15 (1 μM) or bortezomib (100 nM) (FIG. 1b). […] Immunoblot of ODC-1 levels in HCT-116 cells following treatment with bortezomib ([…] or b-Ap15 (1 μM) (FIG. 1d); values represent quantified optical density units of ODC-1 normalized to β-actin. Cell cycle profiles of b-AP15 treated HCT-116 cells (FIG. 1e); cells were analyzed by propidium iodide staining and flow cytometry. Levels of caspase activity in isogenic HCT-116 cells as determined by ELISA for caspase cleaved cytokeratin-18 (CK18-Asp398) following treatment with bortezomib (100 nM) or b-AP15 (1 μM) (**′P=0.01, ***′P=0.001) (FIG. 1f). […]

## C=CC(=O)N1C/C(=C\c2ccc([N+](=O)[O-])cc2)C(=O)/C(=C/c2ccc([N+](=O)[O-])cc2)C1 [b-AP15]
[1]; 4T1
  difference in weight at start and endpoint between control and treated animals: +5.8%
[1]; FaDu xenograft
  difference in weight at start and endpoint between control and treated animals: −1.3%
[1]; LLC
  difference in weight at start and endpoint between control and treated animals: +2.1%
[1]; b-AP15 treated group
  adverse side effects: No adverse side effects were observed
  average weight loss at the conclusion of the study: < 5%
26S proteasome
  inhibition of deubiquitinating activity of 26S proteasome: inhibits the deubiquitinating activity
[2]
  apoptosis: effect of genetic disruption of BAX or PUMA: does not affect b-AP15 sensitivity
  caspase cleavage of cytokeratin-18: effect of p53 disruption or Bcl-2 overexpression: not affected by genetic disruption of p53 or overexpression of Bcl-2
